# Measured values reported in ChEMBL document CHEMBL1681651, “A broad spectrum anticancer nucleoside with selective toxicity against human colon cells in vitro” (2011).
# Experiments:
# Type in all cases: functional
# [1] = system: TK-10; experiment: Growth inhibition of human TK10 cells assessed as cell growth at 1 uM after 48 hrs by SRB assay; details: TK-10, 48 h, read-out: Activity
# [2] = system: CCRF-CEM; experiment: Growth inhibition of human CCRF-CEM cells assessed as cell growth at 10 uM after 48 hrs by SRB assay; details: read-out: Activity
# [3] = Growth inhibition of human […] cells assessed as cell growth at 10 uM after 48 hrs by SRB assay; details: read-out: Activity
# [4] = system: A549; experiment: Growth inhibition of human A549 cells assessed as cell growth at 10 uM after 48 hrs by SRB assay; details: A549, 48 h, read-out: Activity
# [5] = system: NCI-H23; experiment: Growth inhibition of human NCI-H23 cells assessed as cell growth at 10 uM after 48 hrs by SRB assay; details: NCI-H23, 48 h, read-out: Activity
# [6] = system: HT-29; experiment: Growth inhibition of human HT-29 cells assessed as cell growth at 10 uM after 48 hrs by SRB assay; details: HT-29, 48 h, read-out: Activity
# [7] = system: NCI-H23; experiment: Growth inhibition of human NCI-H23 cells after 48 hrs by […] growth inhibition assay; details: NCI-H23, 48 h
# [8] = system: NCI-H460; experiment: Growth inhibition of human NCI-H460 cells after 48 hrs by […] growth inhibition assay; details: NCI-H460, 48 h
# [9] = system: COLO 205; experiment: Growth inhibition of human COLO205 cells after 48 hrs by […] growth inhibition assay; details: COLO 205, 48 h
# [10] = system: UACC-62; experiment: Growth inhibition of human UACC62 cells after 48 hrs by […] growth inhibition assay; details: UACC-62, 48 h
# [11] = system: U-251; experiment: Growth inhibition of human U251 cells after 48 hrs by […] growth inhibition assay; details: U-251, 48 h
# [12] = system: 786-0; experiment: Growth inhibition of human 786-0 cells after 48 hrs by […] growth inhibition assay; details: 786-0, 48 h
# [13] = system: UO-31; experiment: Growth inhibition of human UO31 cells after 48 hrs by […] growth inhibition assay; details: UO-31, 48 h
# [14] = system: CCRF-CEM; experiment: Growth inhibition of human CCRF-CEM cells assessed as cell growth at 0.1 uM after 48 hrs by SRB assay; details: read-out: Activity
# [15] = system: NCI-H23; experiment: Growth inhibition of human NCI-H23 cells assessed as cell growth at 0.1 uM after 48 hrs by SRB assay; details: NCI-H23, 48 h, read-out: Activity
# [16] = system: NCI-H522; experiment: Growth inhibition of human NCI-H522 cells assessed as cell growth at 0.1 uM after 48 hrs by SRB assay; details: NCI-H522, 48 h, read-out: Activity
# [17] = system: A498; experiment: Growth inhibition of human A498 cells assessed as cell growth at 0.1 uM after 48 hrs by SRB assay; details: A498, 48 h, read-out: Activity
# [18] = system: UACC-62; experiment: Growth inhibition of human UACC62 cells assessed as cell growth at 10 uM after 48 hrs by SRB assay; details: UACC-62, 48 h, read-out: Activity
# [19] = system: OVCAR-5; experiment: Growth inhibition of human OVCAR5 cells assessed as cell growth at 10 uM after 48 hrs by SRB assay; details: OVCAR-5, 48 h, read-out: Activity
# [20] = system: A498; experiment: Growth inhibition of human A498 cells assessed as cell growth at 10 uM after 48 hrs by SRB assay; details: A498, 48 h, read-out: Activity
# [21] = system: TK-10; experiment: Growth inhibition of human TK10 cells assessed as cell growth at 10 uM after 48 hrs by SRB assay; details: TK-10, 48 h, read-out: Activity
# [22] = system: BT-549; experiment: Growth inhibition of human BT549 cells assessed as cell growth at 10 uM after 48 hrs by SRB assay; details: BT-549, 48 h, read-out: Activity
# [23] = system: A549; experiment: Growth inhibition of human A549 cells assessed as cell growth at 100 uM after 48 hrs by SRB assay; details: A549, 48 h, read-out: Activity
# [24] = system: KM12; experiment: Growth inhibition of human KM12 cells assessed as cell growth at 100 uM after 48 hrs by SRB assay; details: KM12, 48 h, read-out: Activity
# [25] = system: 786-0; experiment: Growth inhibition of human 786-0 cells assessed as cell growth at 100 uM after 48 hrs by SRB assay; details: 786-0, 48 h, read-out: Activity
# [26] = system: UO-31; experiment: Growth inhibition of human UO31 cells assessed as cell growth at 100 uM after 48 hrs by SRB assay; details: UO-31, 48 h, read-out: Activity
# [27] = system: BT-549; experiment: Growth inhibition of human BT549 cells assessed as cell growth at 100 uM after 48 hrs by SRB assay; details: BT-549, 48 h, read-out: Activity
# [28] = system: HT-29; experiment: Growth inhibition of human HT-29 cells assessed as cell growth at 1 mM after 48 hrs by SRB assay; details: HT-29, 48 h, read-out: Activity
# [29] = system: SN12C; experiment: Growth inhibition of human SN12C cells assessed as cell growth at 1 mM after 48 hrs by SRB assay; details: read-out: Activity
# [30] = system: NCI/ADR-RES; experiment: Growth inhibition of human NCI/ADR-RES cells after 48 hrs by SRB assay
# [31] = system: NCI-H460; experiment: Growth inhibition of human NCI-H460 cells assessed as cell growth at 1 uM after 48 hrs by SRB assay; details: NCI-H460, 48 h, read-out: Activity
# [32] = system: SK-MEL-5; experiment: Growth inhibition of human SK-MEL-5 cells assessed as cell growth at 1 uM after 48 hrs by SRB assay; details: SK-MEL-5, 48 h, read-out: Activity
# [33] = read-out: LC50 (the source's name)
# [34] = read-out: pLC50 (the source's name) (converted)
smiles,measurement,setting,value
CNC(=O)NC[C@H]1O[C@@H](n2cnc3c(NC(=O)Nc4ccccc4)ncnc32)[C@H](O[Si](C)(C)C(C)(C)C)[C@@H]1CC(=O)N(C)OC,growth at 1 µM,[1],106%
same,growth at 10 µM,[2],96%
same,growth at 10 µM,[3],69%
same,growth at 10 µM,[4],97%
same,growth at 10 µM,[5],99%
same,growth at 10 µM,[6],100%
same,GI50,[7]; read-out: GI50,57.2 µM
same,CC50,[7]; [33],> 100 µM
same,TGI,[7]; read-out: TGI,> 100 µM
same,GI50,[7]; read-out: pGI50 (converted),57.5 µM
same,CC50,[7]; [34],> 100 µM
same,TGI,[7]; read-out: pTGI (converted),> 100 µM
same,GI50,[8]; read-out: GI50,7.49 µM
same,CC50,[8]; [33],> 100 µM
same,TGI,[8]; read-out: TGI,> 100 µM
same,GI50,[8]; read-out: pGI50 (converted),7.41 µM
same,CC50,[8]; [34],> 100 µM
same,TGI,[8]; read-out: pTGI (converted),> 100 µM
same,GI50,[9]; read-out: GI50,12.3 µM
same,CC50,[9]; [33],> 100 µM
same,TGI,[9]; read-out: TGI,> 100 µM
same,GI50,[9]; read-out: pGI50 (converted),12.3 µM
same,CC50,[9]; [34],> 100 µM
same,TGI,[9]; read-out: pTGI (converted),> 100 µM
same,GI50,[10]; read-out: GI50,41.9 µM
same,CC50,[10]; [33],> 100 µM
same,TGI,[10]; read-out: TGI,> 100 µM
same,GI50,[10]; read-out: pGI50 (converted),41.7 µM
same,CC50,[10]; [34],> 100 µM
same,TGI,[10]; read-out: pTGI (converted),> 100 µM
same,GI50,[11]; read-out: GI50,5.66 µM
same,CC50,[11]; [33],> 100 µM
same,TGI,[11]; read-out: TGI,> 100 µM
same,GI50,[11]; read-out: pGI50 (converted),5.62 µM
same,CC50,[11]; [34],> 100 µM
same,TGI,[11]; read-out: pTGI (converted),> 100 µM
same,GI50,[12]; read-out: GI50,9.01 µM
same,CC50,[12]; [33],> 100 µM
same,TGI,[12]; read-out: TGI,> 100 µM
same,GI50,[12]; read-out: pGI50 (converted),8.91 µM
same,CC50,[12]; [34],> 100 µM
same,TGI,[12]; read-out: pTGI (converted),> 100 µM
same,GI50,[13]; read-out: GI50,7.79 µM
same,CC50,[13]; [33],> 100 µM
same,TGI,[13]; read-out: TGI,> 100 µM
same,GI50,[13]; read-out: pGI50 (converted),7.76 µM
same,CC50,[13]; [34],> 100 µM
same,TGI,[13]; read-out: pTGI (converted),> 100 µM
same,growth at 0.1 µM,[14],101%
same,growth at 0.1 µM,[15],106%
same,growth at 0.1 µM,[16],90%
same,growth at 0.1 µM,[17],90%
same,growth at 10 µM,[18],96%
same,growth at 10 µM,[19],92%
same,growth at 10 µM,[20],87%
same,growth at 10 µM,[21],104%
same,growth at 10 µM,[22],96%
same,growth at 100 µM,[23],49%
same,growth at 100 µM,[24],62%
same,growth at 100 µM,[25],48%
same,growth at 100 µM,[26],46%
same,growth at 100 µM,[27],70%
same,growth at 1000 µM,[28],17%
same,growth at 1000 µM,[29],49%
same,GI50,[30]; read-out: GI50,> 100 µM
same,CC50,[30]; [33],> 100 µM
same,TGI,[30]; read-out: TGI,> 100 µM
same,GI50,[30]; read-out: pGI50 (converted),> 100 µM
same,CC50,[30]; [34],> 100 µM
same,TGI,[30]; read-out: pTGI (converted),> 100 µM
same,growth at 1 µM,[31],93%
same,growth at 1 µM,[32],98%
